Legend:
Type in all cases: cell-based, human
RPMI-8226 = experiment: NCI-60 five-dose assay; settings: RPMI-8226 (Leukemia), 48 h
K-562 = experiment: NCI-60 five-dose assay; settings: K-562 (Leukemia), 48 h
NCI-H322M = experiment: NCI-60 five-dose assay; settings: NCI-H322M (Non-Small Cell Lung Cancer), 48 h
HCC-2998 = experiment: NCI-60 five-dose assay; settings: HCC-2998 (Colon Cancer), 48 h
HCT-116 = experiment: NCI-60 five-dose assay; settings: HCT-116 (Colon Cancer), 48 h
SF-268 = experiment: NCI-60 five-dose assay; settings: SF-268 (CNS Cancer), 48 h
SNB-19 = experiment: NCI-60 five-dose assay; settings: SNB-19 (CNS Cancer), 48 h
SNB-75 = experiment: NCI-60 five-dose assay; settings: SNB-75 (CNS Cancer), 48 h
LOX IMVI = experiment: NCI-60 five-dose assay; settings: LOX IMVI (Melanoma), 48 h
SK-MEL-28 = experiment: NCI-60 five-dose assay; settings: SK-MEL-28 (Melanoma), 48 h
SK-MEL-5 = experiment: NCI-60 five-dose assay; settings: SK-MEL-5 (Melanoma), 48 h
UACC-62 = experiment: NCI-60 five-dose assay; settings: UACC-62 (Melanoma), 48 h
IGROV1 = experiment: NCI-60 five-dose assay; settings: IGROV1 (Ovarian Cancer), 48 h
OVCAR-8 = experiment: NCI-60 five-dose assay; settings: OVCAR-8 (Ovarian Cancer), 48 h
NCI/ADR-RES = experiment: NCI-60 five-dose assay; settings: NCI/ADR-RES (Ovarian Cancer), 48 h
786-0 = experiment: NCI-60 five-dose assay; settings: 786-0 (Renal Cancer), 48 h
A498 = experiment: NCI-60 five-dose assay; settings: A498 (Renal Cancer), 48 h
RXF 393 = experiment: NCI-60 five-dose assay; settings: RXF 393 (Renal Cancer), 48 h
TK-10 = experiment: NCI-60 five-dose assay; settings: TK-10 (Renal Cancer), 48 h
PC-3 = experiment: NCI-60 five-dose assay; settings: PC-3 (Prostate Cancer), 48 h
MCF7 = experiment: NCI-60 five-dose assay; settings: MCF7 (Breast Cancer), 48 h
HS 578T = experiment: NCI-60 five-dose assay; settings: HS 578T (Breast Cancer), 48 h
T-47D = experiment: NCI-60 five-dose assay; settings: T-47D (Breast Cancer), 48 h
Prostate Cancer subpanel = experiment: NCI-60 five-dose assay, subpanel
Breast Cancer subpanel = experiment: NCI-60 five-dose assay, subpanel
[1] = Homo sapiens, read-out: GI50 Conc. per Cell Line
[2] = Homo sapiens, read-out: LC50 (the source's name)

O=C(NN=Cc1ccc([N+](=O)[O-])cc1)c1ccc2[nH]c(-c3ccc(Cl)cc3)nc2c1 [Compound 4c, N′-(4-Nitrobenzylidene)-2-(4-chlorophenyl)-1H-benzimidazole-5-carbohydrazide]
GI50 (RPMI-8226; [1]): 0.461 µM
CC50 (RPMI-8226; [2]): > 100 µM
TGI (RPMI-8226): 2.41 µM
GI50 (K-562; Homo sapiens, K562, read-out: GI50 Conc. per Cell Line): 0.499 µM
CC50 (K-562; Homo sapiens, K562, read-out: LC50 (the source's name)): 54.6 µM
TGI (K-562): 8.44 µM
GI50 (NCI-H322M; [1]): 5.04 µM
CC50 (NCI-H322M; [2]): > 100 µM
TGI (NCI-H322M): 26.40 µM
TGI (HCC-2998): 4.81 µM
GI50 (HCC-2998; [1]): 1.48 µM
CC50 (HCC-2998; [2]): 28.1 µM
TGI (HCT-116): 6.90 µM
GI50 (HCT-116; [1]): 2.25 µM
CC50 (HCT-116; [2]): 82.3 µM
GI50 (SF-268; [1]): 4.97 µM
CC50 (SF-268; [2]): > 100 µM
TGI (SF-268): 24.30 µM
GI50 (SNB-19; [1]): 7.48 µM
CC50 (SNB-19; [2]): > 100 µM
TGI (SNB-19): 32.40 µM
GI50 (SNB-75; [1]): 2.78 µM
CC50 (SNB-75; [2]): > 100 µM
TGI (SNB-75): 18.00 µM
GI50 (LOX IMVI; [1]): 1.34 µM
CC50 (LOX IMVI; [2]): 7.74 µM
TGI (LOX IMVI): 3.22 µM
GI50 (SK-MEL-28; [1]): 2.6 µM
CC50 (SK-MEL-28; [2]): 39 µM
TGI (SK-MEL-28): 10.30 µM
GI50 (SK-MEL-5; [1]): 2.11 µM
CC50 (SK-MEL-5; [2]): 12.8 µM
TGI (SK-MEL-5): 4.78 µM
GI50 (UACC-62; [1]): 3.51 µM
CC50 (UACC-62; [2]): 52.2 µM
TGI (UACC-62): 14.90 µM
GI50 (IGROV1; Homo sapiens, IGROV-1, read-out: GI50 Conc. per Cell Line): 3.04 µM
CC50 (IGROV1; Homo sapiens, IGROV-1, read-out: LC50 (the source's name)): 52.4 µM
TGI (IGROV1): 11.40 µM
GI50 (OVCAR-8; [1]): 2.89 µM
CC50 (OVCAR-8; [2]): > 100 µM
TGI (OVCAR-8): 13.70 µM
GI50 (NCI/ADR-RES; [1]): 12.6 µM
CC50 (NCI/ADR-RES; [2]): > 100 µM
TGI (NCI/ADR-RES): >100 µM
TGI (786-0): 15.70 µM
GI50 (786-0; [1]): 3.92 µM
CC50 (786-0; [2]): 58.2 µM
TGI (A498): 7.75 µM
GI50 (A498; [1]): 2.4 µM
CC50 (A498; [2]): 36.4 µM
GI50 (RXF 393; [1]): 2.03 µM
CC50 (RXF 393; [2]): 34 µM
TGI (RXF 393): 7.07 µM
GI50 (TK-10; [1]): 8.99 µM
CC50 (TK-10; [2]): > 100 µM
TGI (TK-10): 40.23 µM
GI50 (PC-3; [1]): 0.42 µM
TGI (PC-3): 15.30 µM
GI50 (MCF7; [1]): 0.582 µM
CC50 (MCF7; [2]): 13.3 µM
TGI (MCF7): 2.85 µM
TGI (HS 578T): 24.40 µM
GI50 (HS 578T; [1]): 3.58 µM
CC50 (HS 578T; [2]): > 100 µM
GI50 (T-47D; Homo sapiens, T47D, read-out: GI50 Conc. per Cell Line): 2.29 µM
CC50 (T-47D; Homo sapiens, T47D, read-out: LC50 (the source's name)): > 100 µM
TGI (T-47D): 7.21 µM
GI50 (Prostate Cancer subpanel; Homo sapiens, Prostate Cancer, average sensitivity of all subpanel cell lines, read-out: GI50 Subpanel MID b): 2.2 µM
GI50 Selectivity Ratio (MID a/MID b) (Prostate Cancer subpanel; Prostate Cancer subpanel): 1.49
GI50 Selectivity Ratio (MID a/MID b) (Breast Cancer subpanel; Breast Cancer subpanel): 1.31
GI50 (Breast Cancer subpanel; Homo sapiens, Breast Cancer, average sensitivity of all subpanel cell lines, read-out: GI50 Subpanel MID b): 2.5 µM
